Results from patent publication US5670492A, “DC-89 derivatives” (priority 1994, dated 1997).
Values after ≈ are worked out from the molar mass of the structure shown. Read-outs that look alike come from different tables or passages of the source.

How the values were obtained:
HeLaS3 cells = assay: Growth Inhibitory Effect Against HeLaS3 cells; assay type: cell-based
Protocol: HeLaS3 cells were suspended in MEM medium containing 10% calf serum and 2 mM glutamine to a concentration of 2.67×10^4 cells/mi. The cell suspension thus prepared was put into wells of a 24-well culture plate in an amount of 0.75 ml per well. After the cells were incubated in a CO2 incubator overnight at 37° C., Compound (I) which had been appropriately diluted with a culture medium was added to each well in an amount of 0.25 ml.
The cells were further incubated in the CO2 incubator for 72 hours, and the culture supernatant was removed. Then, the cells were dispersed in a solution of trypsin and EDTA and recovered. The number of cells was counted using a cell counter. The concentration (IC50) of Compound (I) at which the growth of the cells is inhibited by 50% was calculated by comparing the number of untreated cells with the number of the cells treated with Compound (I) at known concentrations.

Sarcoma 180 tumor = assay: Therapeutic Effect Against Sarcoma 180 Tumor; assay type: in vivo, male ddY-strain mice; details: Mus musculus, Sarcoma-180, iv, 168 h, read-out: T/C
Protocol: Five male ddY-strain mice each weighing 18-20 g were used for each group as test animals, and 5×10^5 Sarcoma 180 tumor cells were implanted at the axilla subcutaneously. One day after the implantation, 0.2 ml of a physiological saline containing Compound (I) at the concentration shown in Table 2 was intravenously administered to each mouse. T/C [T: average tumor volume (mm^3) of the group treated with the test compound, C: average tumor volume (mm^3) of the control group (to which […] of a physiological saline was intravenously administered)] was determined seven days after the implantation.

[1] = Test for Solubility in Water; assay type: physicochemical; details: room temperature
Protocol: A sample tube was charged with 0.7 mg of Compound (I), and 30 μl of water were added thereto at room temperature. The mixture was stirred, and the solubility in water was measured. When the compound was not dissolved, 30 μl of water was added thereto successively, and the mixture was stirred. The solubility in water was measured when the compound was dissolved.

ddY-strain male mice = assay: Acute Toxicity; assay type: in vivo; details: i.v., mortality at 14 days after administration
Protocol: Compound (I) was intravenously administered to ddY-strain male mice each weighing 20±1 g. MLD (minimum lethal dose) was determined by observing the mortality at 14 days after administration.

[2] = Homo sapiens, HeLa S3, 72 hours, read-out: IC50
[3] = 1.0 mg/kg, single i.v. one day after s.c. implantation, tumor volume ratio seven days after implantation

Structure (SMILES)	IC50 (HeLaS3 cells; Homo sapiens, HeLa S3, 72 h) [nM]	solubility [1] [mg/mL]	MLD (minimum lethal dose) (ddY-strain male mice) [mg/kg]	IC50 (HeLaS3 cells; [2]) [nM]	other results
COC(=O)c1c(C)[nH]c2c(OC(=O)NN3CCN(C)CC3)cc3c(c12)C(CBr)CN3C(=O)/C=C/c1cnc(OC)nc1 (centres unmarked) [Compound 71]	1.5	> 10			response vs control in vivo at 2 mg/kg (Sarcoma 180 tumor): 30%
COC(=O)c1c(C)[nH]c2c(OC(=O)c3cccnc3)cc3c(c12)C(CBr)CN3C(=O)/C=C/c1ccc(OC)c(N(C)C)c1 (centres unmarked) [Compound 55]	0.43	> 18	1.0		response vs control in vivo at 1 mg/kg (Sarcoma 180 tumor): 28%
COC(=O)c1c(C)[nH]c2c(OC(=O)N3CCN(C)CC3)cc3c(c12)C(CBr)CN3C(=O)/C=C/c1ccc(OC)cn1 (centres unmarked) [Compound 17]		> 20			
COC(=O)c1c(C)[nH]c2c(OC(=O)N(C)N)cc3c(c12)C(CBr)CN3C(=O)/C=C/c1cnc(OC)nc1 (centres unmarked) [Compound 74]	2.4				response vs control in vivo at 1 mg/kg (Sarcoma 180 tumor): 37%
COC(=O)c1c(C)[nH]c2c(OC(=O)CN3CCC(N4CCCCC4)CC3)cc3c(c12)C(CBr)CN3C(=O)/C=C/c1ccc(OC)c(N(C)C)c1 (centres unmarked) [Compound 83]		> 20		0.59	
COC(=O)c1c(C)[nH]c2c(OC(=O)N3CCN(C)CC3)cc3c(c12)C(CBr)CN3C(=O)COc1ccc(OC(F)(F)F)cc1 (centres unmarked) [Compound 25]	1100	0.2 (≈ 0.293 mM)	4.0		response vs control in vivo at 2 mg/kg (Sarcoma 180 tumor): 12%
COC(=O)Oc1cc2c(c3c(C(=O)OC)c(C)[nH]c13)C(CBr)CN2C(=O)/C=C/c1ccc(OC)nc1 (centres unmarked) [Compound 4]	0.7		0.50		response vs control in vivo at 0.5 mg/kg (Sarcoma 180 tumor): 35%
COC(=O)c1c(C)[nH]c2c(OC(=O)c3ccc(N(C)C)cc3)cc3c(c12)C(CBr)CN3C(=O)/C=C/c1ccc(OC)c(N(C)C)c1 (centres unmarked) [Compound 56]	2.2		1.0		response vs control in vivo at 1 mg/kg (Sarcoma 180 tumor): 36%
COC(=O)c1c(C)[nH]c2c(OC(=O)c3nccnc3N)cc3c(c12)C(CBr)CN3C(=O)/C=C/c1ccc(OC)c(N(C)C)c1 (centres unmarked) [Compound 58]		> 20			
COC(=O)c1c(C)[nH]c2c1C13CC1CN(C(=O)/C=C/c1ccc(OC)c(N(C)C)c1)C3=CC2=O (centres unmarked) [Compound 41]				0.92	
COC(=O)c1c(C)[nH]c2c(O)cc3c(c12)C(CBr)CN3C(=O)/C=C/c1ccc(OC)c(N(C)C)c1 (centres unmarked) [Compound 81]		2.5 (≈ 4.61 mM)		0.5	
COC(=O)c1c(C)[nH]c2c1C13CC1CN(C(=O)/C=C/c1ccc(NC(=O)OC(C)(C)C)cc1)C3=CC2=O (centres unmarked) [Compound 26]				0.56	
COC(=O)c1c(C)[nH]c2c(OC(=O)NN3CCN(C)CC3)cc3c(c12)C(CBr)CN3C(=O)/C=C/c1cnc(OC)nc1 (centres unmarked) [Compound 72]			4.0		IC50 (HeLaS3 cells; 72 hours): 1.6 nM; response vs control in vivo at 4 mg/kg (Sarcoma 180 tumor): 15%; Solubility in water [1]: > 10 mg/mL
CNN(C)C(=O)Oc1cc2c(c3c(C(=O)OC)c(C)[nH]c13)C(CBr)CN2C(=O)/C=C/c1ccc(OC)c(N(C)C)c1 (centres unmarked) [Compound 64]	1.1	> 15	2.0		response vs control in vivo at 1.3 mg/kg (Sarcoma 180 tumor): 26%
COC(=O)c1c(C)[nH]c2c(OC(C)=O)cc3c(c12)C(CBr)CN3C(=O)/C=C/c1cnc(OC)nc1 (centres unmarked) [Compound 11]	0.92		1.0		response vs control in vivo at 1 mg/kg (Sarcoma 180 tumor): 17%
COC(=O)c1c(C)[nH]c2c1C13CC1CN(C(=O)/C=C/c1ccc(N(C)C)cc1)C3=CC2=O (centres unmarked) [Compound 27]				1.6	
COC(=O)c1c(C)[nH]c2c(OC(=O)CSCC(=O)O)cc3c(c12)C(CBr)CN3C(=O)/C=C/c1cnc(OC)nc1 (centres unmarked) [Compound 73]		< 0.1		1.2	response vs control in vivo at 1 mg/kg (Sarcoma 180 tumor; [3]): 36%
COC(=O)COc1cc(/C=C/C(=O)N2CC3CC34C2=CC(=O)c2[nH]c(C)c(C(=O)OC)c24)ccc1OC (centres unmarked) [Compound 34]				0.86	
COC(=O)Oc1cc2c(c3c(C(=O)OC)c(C)[nH]c13)C(CBr)CN2C(=O)/C=C/c1ccc(OC)c(N)c1 (centres unmarked) [Compound 38]				0.67	

Structure (SMILES)	IC50 (HeLaS3 cells; Homo sapiens, HeLa S3, 72 h) [nM]	solubility [1] [mg/mL]	MLD (minimum lethal dose) (ddY-strain male mice) [mg/kg]	IC50 (HeLaS3 cells; [2]) [nM]	other results
COC(=O)c1c(C)[nH]c2c1C13CC1CN(C(=O)COc1ccc(OC)cc1)C3=CC2=O (centres unmarked) [Compound 18]				0.19	
COC(=O)c1c(C)[nH]c2c1C13CC1CN(C(=O)/C=C/c1ccc(OC)c(N)c1)C3=CC2=O (centres unmarked) [Compound 37]				0.53	
COC(=O)c1c(C)[nH]c2c1C13CC1CN(C(=O)/C=C/c1ccc(OC)c(OCCCN)c1)C3=CC2=O (centres unmarked) [Compound 30]				1.4	
COC(=O)c1c(C)[nH]c2c1C13CC1CN(C(=O)/C=C/c1ccc(OC)nn1)C3=CC2=O (centres unmarked) [Compound 12]				0.28	
COC(=O)c1c(C)[nH]c2c1C13CC1CN(C(=O)/C=C/c1ccc(OC)nc1)C3=CC2=O (centres unmarked) [Compound 1]				0.42	
COC(=O)c1c(C)[nH]c2c(OC(=O)N3CCN(C)CC3)cc3c(c12)C(CBr)CN3C(=O)/C=C/c1ccc(OC)c(OCCCN)c1 (centres unmarked) [Compound 32]		> 20			
COC(=O)c1c(C)[nH]c2c(OC(=O)c3cccnc3)cc3c(c12)C(CBr)CN3C(=O)/C=C/c1cnc(OC)nc1 (centres unmarked) [Compound 67]	1.2		1.0		response vs control in vivo at 1 mg/kg (Sarcoma 180 tumor): 26%
COC(=O)c1c(C)[nH]c2c(OC(=O)N3CCN(C)CC3)cc3c(c12)C(CBr)CN3C(=O)/C=C/c1ccc(OC)c(N)c1 (centres unmarked) [Compound 40]		> 20			
COC(=O)c1c(C)[nH]c2c(OC(=O)c3cccnc3)cc3c(c12)C(CBr)CN3C(=O)/C=C/c1ccc(N(C)C)cc1 (centres unmarked) [Compound 77]	0.45		4.0		response vs control in vivo at 4 mg/kg (Sarcoma 180 tumor): 19%
COC(=O)c1c(C)[nH]c2c(OC(=O)N3CCN(C)CC3)cc3c(c12)C(CBr)CN3C(=O)/C=C/c1ccc(N(C)C)cc1 (centres unmarked) [Compound 79]	52	> 20			response vs control in vivo at 8 mg/kg (Sarcoma 180 tumor): 22%
COC(=O)c1c(C)[nH]c2c1C13CC1CN(C(=O)/C=C/c1ccc(N)cc1)C3=CC2=O (centres unmarked) [Compound 28]				2.6	
COC(=O)c1c(C)[nH]c2c1C13CC1CN(C(=O)COc1ccc(OC(F)(F)F)cc1)C3=CC2=O (centres unmarked) [Compound 23]				1.6	
COC(=O)c1c(C)[nH]c2c1C13CC1CN(C(=O)/C=C/c1cnc(OC)nc1)C3=CC2=O (centres unmarked) [Compound 6]				0.9	
COC(=O)c1c(C)[nH]c2c(OC(=O)N3CCN(C)CC3)cc3c(c12)C(CBr)CN3C(=O)COc1ccc(OC)cc1 (centres unmarked) [Compound 20]	94		0.50		response vs control in vivo at 0.5 mg/kg (Sarcoma 180 tumor): 20%
COC(=O)c1c(C)[nH]c2c(OC(=O)c3ccc(CN4CCN(C)CC4)cc3)cc3c(c12)C(CBr)CN3C(=O)/C=C/c1cnc(OC)nc1 (centres unmarked) [Compound 76]		> 10		1.3	response vs control in vivo at 1 mg/kg (Sarcoma 180 tumor; [3]): 25%
COC(=O)c1c(C)[nH]c2c(OC(=O)CN3CCN(C)CC3)cc3c(c12)C(CBr)CN3C(=O)/C=C/c1ccc(OC)c(N(C)C)c1 (centres unmarked) [Compound 82]	0.5	> 10	2.0		
COC(=O)c1c(C)[nH]c2c(O)cc3c(c12)C(CCl)CN3C(=O)/C=C/c1ccc(OC)c(N(C)C)c1 (centres unmarked) [Compound 80]		> 15		0.44	
COC(=O)c1c(C)[nH]c2c(OC(=O)N(C)N)cc3c(c12)C(CBr)CN3C(=O)/C=C/c1ccc(OC)c(N(C)C)c1 (centres unmarked) [Compound 53]	1.2		2.0		response vs control in vivo at 2 mg/kg (Sarcoma 180 tumor): 7%
